{"source": "paper PMC11817372", "about": "“The Silkworm (Bombyx mori) Neuropeptide Orcokinin’s Efficiency in Whitening and Skincare” (International Journal of Molecular Sciences, 2025)", "key": {"Tyrosinase [1]": {"system": "Tyrosinase", "settings": "for Inhibitory rate on tyrosinase, Average: average over 5, 0.1, 0.05 and 0.025 mmol/L; for effect on tyrosinase reaction course (in words): absorbance time course 10-180 s compared with negative control completed at 60 s; for highest inhibition rate on tyrosinase: highest rate among the tested concentrations", "procedure": "The peptide solution (5 mmol/L) was then diluted 50-fold (0.1 mmol/L), 100-fold (0.05 mmol/L), and 200-fold (0.025 mmol/L), respectively, and then the inhibitory rate was calculated after a 5 min reaction."}, "[2]": {"system": "UV-irradiated guinea pig skin", "format": "in vivo, guinea pig (Cavia porcellus)", "settings": "peptide solution 5 mmol/L painted on UV-irradiated back skin, sections after 24 h; for pathological tissue findings (Masson staining and HE staining): versus deionized water side", "experimental": "Model preparation: Six adult healthy guinea pigs with normal development were selected. The fur on both sides of the back was shaved to expose a circular area with a diameter of 4 cm. Ultraviolet (UV) irradiation was performed at 10 cm from the skin in the exposed area, once daily with a dose of 700 mJ/cm^2, and continued for 7 consecutive days, with a cumulative dose of […]. A metal halide lamp was used as the light source with a power of 1000 W and a peak spectrum of 360 nm, including 70% long-wave ultraviolet (UVA) and 4% medium-wave ultraviolet (UVB). After UV-irradiation treatment, the peptide solution (5 mmol/L) was painted to the right, and an equal amount of deionized water was applied to the left. Tissue sections and staining observations were performed after 24 h.\nSectioning: Approximately 0.4 cm^3 of subcutaneous tissue from the drug administration area was excised, cleaned with physiological saline, and fixed. After dehydration (DIAPATH, Donatello, Milan, Italy) and hardening treatment, it was subsequently made transparent and subjected to a wax immersion treatment. After paraffin embedding (Wuhan Junjie Electronics Co., Ltd., JB-P5, Wuhan, China), the tissue was sectioned using a microtome (Shanghai Leica Instrument Co., Ltd., RM2016, Shanghai, China). The arranged sections were organized (Zhejiang Jinhua Kedi Instrument Equipment Co., Ltd., KD-P, Jinhua, China) for HE staining and Masson staining.\nHE staining: The paraffin sections were placed in xylene I for 20 min, xylene II for 20 min, anhydrous ethanol I for 5 min, anhydrous ethanol II for 5 min, and 75% alcohol for 5 min for dewaxing treatment; after washing with water, they were placed into hematoxylin staining solution for 3–5 min, differentiated with differentiation solution after washing, and returned to blue with bluing solution after washing; after rinsing with running water, they were dehydrated with 85% and 95% alcohol solutions for 5 min each successively; after immersed into eosin staining solution for 5 min, they were placed in anhydrous ethanol I for 5 min, anhydrous ethanol II for 5 min, anhydrous ethanol III for 5 min, xylene I for 5 min, and xylene II for 5 min for transparency treatment. After, they were sealed with neutral gum, they were examined (Nikon Eclipse E100, Tokyo, Japan) and imaged (Nikon DS-U3, Tokyo, Japan) using a microscope.\nMasson staining: The paraffin sections were placed in xylene I for 20 min, xylene II for 20 min, anhydrous ethanol I for 5 min, anhydrous ethanol II for 5 min, and 75% alcohol for 5 min for dewaxing treatment; after washing with water, they were immersed into Masson A solution overnight, washed with water, then immersed into a mixture of Masson B and Masson C for 1 min, washed with water, then differentiated using an alcohol solution containing 1% hydrochloric acid. Then, they were washed with water, then immersed into Masson D solution for 6 min, washed with water, then immersed into Masson E solution for 1 min, drained, and directly immersed into Masson F solution for 30 s. Subsequently, the sections were rinsed with 1% glacial acetic acid for differentiation, dehydrated with anhydrous ethanol three times for 5 min each, treated with xylene for transparency for 5 min, and then sealed with neutral gum. The sections were examined (Nikon Eclipse E100, Japan) and imaged (Nikon DS-U3, Japan) using a microscope."}, "Tyrosinase [3]": {"system": "Tyrosinase", "set-up": "method as in PMID 23134995", "settings": "cited from earlier work", "source_text": "Neuropeptides with biological functions were called neuropeptides if they were secreted by neural tissues and involved in nervous system functions, which were characterized by low content, high activity, and extensive and complex functions (including food intake regulation, improved metabolism, neural regulation and reproduction, etc.). However, there have been few reports on the pigmentation regulation of neuropeptide. One important function of BommoOK, as a multifunctional neuropeptide, was pigmentation regulation. In silkworm q-l (quail like) mutants, BommoOK was a losing function, a ..."}, "B. mori": {"system": "B. mori", "settings": "CRISPR/cas9 tool and mature peptide subcutaneous injection; cited from earlier work"}, "[4]": {"settings": "0.025 mmol/L, after 5 min reaction"}, "[5]": {"settings": "0.05 mmol/L, after 5 min reaction"}, "[6]": {"settings": "0.1 mmol/L, after 5 min reaction"}}, "note": "Read-outs that look alike come from different tables or passages of the source."}
{"compound": "YDYISPYG [BommoOKA_type5, mature peptide of silkworm neuropeptide Orcokinin, YDYISPYG]", "values": [{"measurement": "Inhibitory rate on tyrosinase", "setting": "Tyrosinase [1]; [4]", "result": "-2.68±1.07", "unit": "%"}, {"measurement": "Inhibitory rate on tyrosinase", "setting": "Tyrosinase [1]; [5]", "result": "3.25±1.57", "unit": "%"}, {"measurement": "Inhibitory rate on tyrosinase", "setting": "Tyrosinase [1]; [6]", "result": "-0.19±1.08", "unit": "%"}, {"measurement": "Inhibitory rate on tyrosinase", "setting": "Tyrosinase [1]; 5 mmol/L, after 5 min reaction", "result": "5.93±0.94", "unit": "%"}, {"measurement": "Inhibitory rate on tyrosinase, Average", "setting": "Tyrosinase [1]; after 5 min reaction", "result": "1.58±3.28", "unit": "%"}, {"measurement": "pathological tissue findings (Masson staining and HE staining)", "setting": "[2]", "result": "inflammatory factors were reduced, and epidermal hyperplasia improved"}]}
{"compound": "Oc1ccc(OC2CCCCO2)cc1", "note": "(stereo not drawn) [deoxyarbutin]", "values": [{"measurement": "whitening effect relative to β-arbutin", "setting": "Tyrosinase [3]", "result": "more than 350 times"}]}
{"compound": "NLDSLGGANF [BommoOKB_type1, mature peptide of silkworm neuropeptide Orcokinin, […]]", "values": [{"measurement": "Inhibitory rate on tyrosinase", "setting": "Tyrosinase [1]; [4]", "result": "greater than 10%"}, {"measurement": "Inhibitory rate on tyrosinase", "setting": "Tyrosinase [1]; [6]", "result": "8.6±1.39", "unit": "%"}, {"measurement": "Inhibitory rate on tyrosinase", "setting": "Tyrosinase [1]; 5 mmol/L, after 5 min reaction", "result": "-4.02±0.82", "unit": "%"}, {"measurement": "effect on tyrosinase reaction course (in words)", "setting": "Tyrosinase [1]", "result": "a certain inhibitory effect on tyrosinase"}, {"measurement": "Inhibitory rate on tyrosinase, Average", "setting": "Tyrosinase [1]; after 5 min reaction", "result": "9.32±8.66", "unit": "%"}, {"measurement": "highest inhibition rate on tyrosinase", "setting": "Tyrosinase [1]", "result": 19.69, "unit": "%"}, {"measurement": "pathological tissue findings (Masson staining and HE staining)", "setting": "[2]", "result": "significant epidermal hyperplasia"}]}
{"compound": "NFDEIDRSSMPFPYAI [BommoOKA_type2, mature peptide of silkworm neuropeptide Orcokinin, […]]", "values": [{"measurement": "Inhibitory rate on tyrosinase", "setting": "Tyrosinase [1]; [4]", "result": "6.69±0.15", "unit": "%"}, {"measurement": "Inhibitory rate on tyrosinase", "setting": "Tyrosinase [1]; [5]", "result": "6.12±0.09", "unit": "%"}, {"measurement": "Inhibitory rate on tyrosinase", "setting": "Tyrosinase [1]; [6]", "result": "5.16±0.09", "unit": "%"}, {"measurement": "Inhibitory rate on tyrosinase, Average", "setting": "Tyrosinase [1]; after 5 min reaction", "result": "7.02±1.88", "unit": "%"}, {"measurement": "pathological tissue findings (Masson staining and HE staining)", "setting": "[2]", "result": "Many inflammatory cells"}, {"measurement": "pigmentation inhibition in B. mori", "setting": "B. mori", "result": "key for pigmentation inhibition"}]}
{"compound": "FYHLYGQNFLDIDSPVSSFD [BommoOKA_type3]", "values": [{"measurement": "Inhibitory rate on tyrosinase", "setting": "Tyrosinase [1]; [4]", "result": "5.54±0.2", "unit": "%"}, {"measurement": "Inhibitory rate on tyrosinase", "setting": "Tyrosinase [1]; [6]", "result": "6.50±0.17", "unit": "%"}, {"measurement": "Inhibitory rate on tyrosinase", "setting": "Tyrosinase [1]; 5 mmol/L, after 5 min reaction", "result": "9.37±0.34", "unit": "%"}, {"measurement": "effect on tyrosinase reaction course (in words)", "setting": "Tyrosinase [1]", "result": "a certain inhibitory effect on tyrosinase"}, {"measurement": "Inhibitory rate on tyrosinase, Average", "setting": "Tyrosinase [1]; after 5 min reaction", "result": "8.27±2.42", "unit": "%"}]}
{"compound": "EARHSGYLPYQMF [BommoOKA_type4, mature peptide of silkworm neuropeptide Orcokinin, […]]", "values": [{"measurement": "Inhibitory rate on tyrosinase", "setting": "Tyrosinase [1]; [4]", "result": "13.96±0.21", "unit": "%"}, {"measurement": "Inhibitory rate on tyrosinase", "setting": "Tyrosinase [1]; [5]", "result": "17.02±0.11", "unit": "%"}, {"measurement": "Inhibitory rate on tyrosinase", "setting": "Tyrosinase [1]; 5 mmol/L, after 5 min reaction", "result": "11.28±0.22", "unit": "%"}, {"measurement": "effect on tyrosinase reaction course (in words)", "setting": "Tyrosinase [1]", "result": "a certain inhibitory effect on tyrosinase"}, {"measurement": "inhibition rate on tyrosinase, all concentrations", "setting": "Tyrosinase [1]; all concentrations (5, 0.1, 0.05, 0.025 mmol/L), after 5 min reaction", "result": "greater than 10%"}, {"measurement": "Inhibitory rate on tyrosinase, Average", "setting": "Tyrosinase [1]; after 5 min reaction", "result": "15.49±3.17", "unit": "%"}, {"measurement": "highest inhibition rate on tyrosinase", "setting": "Tyrosinase [1]", "result": 19.69, "unit": "%"}, {"measurement": "pathological tissue findings (Masson staining and HE staining)", "setting": "[2]", "result": "inflammatory factors were reduced, and epidermal hyperplasia improved"}]}
{"compound": "OC[C@H]1O[C@@H](Oc2ccc(O)cc2)[C@H](O)[C@@H](O)[C@@H]1O", "note": "[β-Arbutin, reference compound]", "values": [{"measurement": "duration of whitening effect", "setting": "Tyrosinase [3]", "result": "more than 8 weeks"}, {"measurement": "Inhibitory rate on tyrosinase", "setting": "Tyrosinase [1]; [4]", "result": "32.70±0.33", "unit": "%"}, {"measurement": "Inhibitory rate on tyrosinase", "setting": "Tyrosinase [1]; [5]", "result": "53.61±1.27", "unit": "%"}, {"measurement": "Inhibitory rate on tyrosinase", "setting": "Tyrosinase [1]; [6]", "result": "74.31±1.81", "unit": "%"}, {"measurement": "Inhibitory rate on tyrosinase", "setting": "Tyrosinase [1]; 5 mmol/L, after 5 min reaction", "result": "72.50±0.12", "unit": "%"}, {"measurement": "Inhibitory rate on tyrosinase, Average", "setting": "Tyrosinase [1]; after 5 min reaction", "result": "58.28±16.85", "unit": "%"}, {"measurement": "highest inhibition rate on tyrosinase", "setting": "Tyrosinase [1]", "result": "more than 70%"}]}
{"compound": "NFDEIDRSSLNTFV [BommoOKA_type1, mature peptide of silkworm neuropeptide Orcokinin, […]]", "values": [{"measurement": "Inhibitory rate on tyrosinase", "setting": "Tyrosinase [1]; [4]", "result": "5.16±0.14", "unit": "%"}, {"measurement": "Inhibitory rate on tyrosinase", "setting": "Tyrosinase [1]; [5]", "result": "6.88±0.19", "unit": "%"}, {"measurement": "Inhibitory rate on tyrosinase", "setting": "Tyrosinase [1]; [6]", "result": "2.87±0.02", "unit": "%"}, {"measurement": "Inhibitory rate on tyrosinase", "setting": "Tyrosinase [1]; 5 mmol/L, after 5 min reaction", "result": "4.02±0.07", "unit": "%"}, {"measurement": "effect on tyrosinase reaction course (in words)", "setting": "Tyrosinase [1]", "result": "seemed to tend to accelerate tyrosinase"}, {"measurement": "Inhibitory rate on tyrosinase, Average", "setting": "Tyrosinase [1]; after 5 min reaction", "result": "4.73±1.48", "unit": "%"}, {"measurement": "melanin inhibition (melanocytes, melanin granules)", "setting": "[2]; Masson and HE staining", "result": "many stretched melanin granules emerged"}, {"measurement": "pathological tissue findings (Masson staining and HE staining)", "setting": "[2]", "result": "loosely arranged tissues"}]}
